Assay results: US10716806B2, “Solution of carbon monoxide for the treatment of disease, including sickle cell disease” (Children's Hospital Los Angeles, priority 2011, dated 2020)

Assays:
[1] = CO concentration achievable in aqueous composition (water) at given temperature and pressure; format: physicochemical
Source text: There are a number of significant limitations to using the delivery of CO dissolved in liquid and used through the GI tract or IV for therapeutic or prophylactic purposes. These limitations have been overcome in the present invention. The primary barrier to date has been delivering sufficient quantities of CO. The solubility of CO in aqueous solutions is low at room temperature and normal atmospheric pressure (ATM). Thus, using approaches previously proposed in the art, which rely on dissolving CO into an aqueous composition at room temperature and at atmospheric pressure, the volume of liquid necessary to deliver a therapeutic dose of CO is logistically prohibitive. However, using the present invention, therapeutically useful levels of CO can be achieved. Table 1 provides a summary of volumes necessary to achieve a therapeutic dose providing an average increase of […] CO-Hb, which provides an average CO-Hb level in the blood of about 7% on average without rising above 15% at any given time. The values are presented for SCD patients. Table 2 provides a similar summary of volumes necessary to treat patients having normal levels of Hb and normal lung function.
First, in the present invention, in particular as it relates to embodiments wherein aqueous compositions are involved, CO is dissolved in an aqueous liquid under higher than ambient pressure. The use of pressure to dissolve the CO increases the achievable concentration of CO in solution. […] Although raising the pressure above 10 ATM might not be commercially practicable, it is technologically feasible at this time. […]

[2] = cited from earlier work
[3] = cited from earlier work; remark: listed apart in the source

[C-]#[O+] [CO, carbon monoxide]
CO Concentration Achievable in Aqueous Composition ([1]; 2° C., 1 ATM): 40 mg/L water | CO Concentration in Aqueous Solution ([1]; 2° C., 1 ATM): 40 mg/L water | CO Concentration Achievable in Aqueous Composition ([1]; 2° C., 2 ATM): 80 mg/L water | CO Concentration in Aqueous Solution ([1]; 2° C., 2 ATM): 80 mg/L water | CO Concentration Achievable in Aqueous Composition ([1]; 2° C., 3 ATM): 120 mg/L water | CO Concentration in Aqueous Solution ([1]; 2° C., 3 ATM): 120 mg/L water | CO Concentration Achievable in Aqueous Composition ([1]; 2° C., 5 ATM): 200 mg/L water | CO Concentration in Aqueous Solution ([1]; 2° C., 5 ATM): 200 mg/L water | CO Concentration Achievable in Aqueous Composition ([1]; 2° C., 10 ATM): 400 mg/L water | CO Concentration in Aqueous Solution ([1]; 2° C., 10 ATM): 400 mg/L water | CO Concentration Achievable in Aqueous Composition ([1]; 21° C., 1 ATM): 25 mg/L water | half-life of the alpha-phase of CO in the human bloodstream [2]: 4 to 6 h | CO-Hb level at which toxicity and side effects are routinely seen ([3]; generally recognized): over 20% | CO-Hb level showing effectiveness at reducing SCC without significant deleterious side effects or toxicity ([3]; generally recognized): up to 15 % CO-Hb | Hb saturation likely resulting in CO-induced death unless treatment is provided ([3]; reported (Stewart 1975)): over 67% | Hb saturation resulting in loss of consciousness, among other serious morbidities ([3]; reported, can result in death if maintained long-term): over 30%
